One test addresses human GAD67 (hGAD67) (Homo sapiens, UniProt Q99259). Put plainly: biochemical.
Another test deals with α1β1γ2 GABA-A receptor. Particulars: agonist; nH 1.3.
For a further test, the system named is α5β1γ2 GABA-A receptor. The following applies: agonist; +50 mV; nH 1.8.

SMILES strings stand for the structures.

human GAD67 (hGAD67), sequence (Q99259 whole entry): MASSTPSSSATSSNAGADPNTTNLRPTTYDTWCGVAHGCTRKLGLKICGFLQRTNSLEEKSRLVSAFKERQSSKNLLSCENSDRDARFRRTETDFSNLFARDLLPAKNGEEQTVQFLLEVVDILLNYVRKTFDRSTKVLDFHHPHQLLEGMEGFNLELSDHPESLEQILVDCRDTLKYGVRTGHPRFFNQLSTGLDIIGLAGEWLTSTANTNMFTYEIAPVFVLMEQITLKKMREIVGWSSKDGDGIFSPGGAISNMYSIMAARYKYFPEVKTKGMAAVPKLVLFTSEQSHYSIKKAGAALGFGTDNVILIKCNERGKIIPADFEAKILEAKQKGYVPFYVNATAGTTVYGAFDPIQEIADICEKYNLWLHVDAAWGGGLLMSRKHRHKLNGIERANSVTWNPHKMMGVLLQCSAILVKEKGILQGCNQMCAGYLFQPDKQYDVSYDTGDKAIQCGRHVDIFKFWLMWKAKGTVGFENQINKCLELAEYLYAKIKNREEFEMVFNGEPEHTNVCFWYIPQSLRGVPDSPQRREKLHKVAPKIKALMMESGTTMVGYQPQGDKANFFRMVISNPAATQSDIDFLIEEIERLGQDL

A word on the Ki: it is a dissociation constant, usually derived from enzyme kinetics or from competition with a known ligand. The low end stands for higher affinity, the high end for lower affinity. As a reminder, the EC50 is the midpoint of the concentration-response curve. A lower EC50 goes with a more potent agent. Molecule `O=C(O)[C@@H]1CCCN1` [L-proline] displayed an inhibition constant (Ki) on human GAD67 (hGAD67) of 7.8 mM. Also, the values for the EC50 in the test with α1β1γ2 GABA-A receptor and in the test with α5β1γ2 GABA-A receptor were 8.3 mM and 5.4 mM, respectively.

Values taken from article PMC5104186 (Cell reports, 2016).
